Assay results published in BigSolDB 2.1.

CC(C)C(=O)Nc1ccc([N+](=O)[O-])c(C(F)(F)F)c1
solubility (mole fraction) (in 1,4-dioxane, 283.15 K): 0.12 | solubility (mole fraction) (in 1,4-dioxane, 288.15 K): 0.139 | solubility (mole fraction) (in 1,4-dioxane, 293.15 K): 0.16 | solubility (mole fraction) (in 1,4-dioxane, 298.15 K): 0.184 | solubility (mole fraction) (in 1,4-dioxane, 303.15 K): 0.21 | solubility (mole fraction) (in 1,4-dioxane, 308.15 K): 0.239 | solubility (mole fraction) (in 1,4-dioxane, 313.15 K): 0.272 | solubility (mole fraction) (in 1,4-dioxane, 318.15 K): 0.307 | solubility (mole fraction) (in 1,4-dioxane, 323.15 K): 0.338 | solubility (mole fraction) (in acetonitrile, 278.15 K): 0.0592 | solubility (mole fraction) (in acetonitrile, 283.15 K): 0.0749 | solubility (mole fraction) (in acetonitrile, 288.15 K): 0.0939 | solubility (mole fraction) (in acetonitrile, 293.15 K): 0.115 | solubility (mole fraction) (in acetonitrile, 298.15 K): 0.144 | solubility (mole fraction) (in acetonitrile, 303.15 K): 0.177 | solubility (mole fraction) (in acetonitrile, 308.15 K): 0.217 | solubility (mole fraction) (in acetonitrile, 313.15 K): 0.262 | solubility (mole fraction) (in acetonitrile, 318.15 K): 0.314 | solubility (mole fraction) (in acetonitrile, 323.15 K): 0.375 | solubility (mole fraction) (in ethanol, 278.15 K): 0.0365 | solubility (mole fraction) (in ethanol, 283.15 K): 0.0435 | solubility (mole fraction) (in ethanol, 288.15 K): 0.0522 | solubility (mole fraction) (in ethanol, 293.15 K): 0.0617 | solubility (mole fraction) (in ethanol, 298.15 K): 0.0728 | solubility (mole fraction) (in ethanol, 303.15 K): 0.0858 | solubility (mole fraction) (in ethanol, 308.15 K): 0.1 | solubility (mole fraction) (in ethanol, 313.15 K): 0.116 | solubility (mole fraction) (in ethanol, 318.15 K): 0.136 | solubility (mole fraction) (in ethanol, 323.15 K): 0.156 | solubility (mole fraction) (in isopropanol, 278.15 K): 0.0583 | solubility (mole fraction) (in isopropanol, 283.15 K): 0.0664 | solubility (mole fraction) (in isopropanol, 288.15 K): 0.0756 | solubility (mole fraction) (in isopropanol, 293.15 K): 0.0861 | solubility (mole fraction) (in isopropanol, 298.15 K): 0.0979 | solubility (mole fraction) (in isopropanol, 303.15 K): 0.11 | solubility (mole fraction) (in isopropanol, 308.15 K): 0.125 | solubility (mole fraction) (in isopropanol, 313.15 K): 0.14 | solubility (mole fraction) (in isopropanol, 318.15 K): 0.155 | solubility (mole fraction) (in isopropanol, 323.15 K): 0.176 | solubility (mole fraction) (in water, 278.15 K): 2.41e-07 | solubility (mole fraction) (in water, 283.15 K): 3.17e-07 | solubility (mole fraction) (in water, 288.15 K): 4.02e-07 | solubility (mole fraction) (in water, 293.15 K): 5.23e-07 | solubility (mole fraction) (in water, 298.15 K): 6.68e-07 | solubility (mole fraction) (in water, 303.15 K): 8.38e-07 | solubility (mole fraction) (in water, 308.15 K): 1.07e-06 | solubility (mole fraction) (in water, 313.15 K): 1.32e-06 | solubility (mole fraction) (in water, 318.15 K): 1.65e-06 | solubility (mole fraction) (in water, 323.15 K): 2.06e-06
